These molecules were tested on Vibrio harveyi MM32, AI-2 induced luminescence, 5 h (assay: AI-2 driven bioluminescence decrease, LuxPQ pathway – strain MM32, luminescence, dry powder, mechanism study for V. harveyi quorum sensing inhibitors, dose response (AID 493118)).

For `O=C1C=C/C(=C/Br)O1`, which AC50 is on record?
The AC50 was 4330 nM.

Which AC50 does the source give for `COc1cc(NC(=O)CN2C(=O)NC(c3ccccc3)(c3ccccc3)C2=O)cc(OC)c1` here?
Its AC50 is 615 nM.

How did the AC50 turn out when `Cn1cnc(S(=O)(=O)Nc2ccc(OC(F)(F)F)cc2)c1` was run?
Its AC50 is 1950 nM.

How did the AC50 turn out when `C=Cn1c(C(=O)O)ccc1-c1ccc(CC)cc1` was run?
The AC50 was 2140 nM.

For `Cc1cccc(NS(=O)(=O)c2ccc(Oc3ccccc3)cc2)n1`, which AC50 is on record?
The AC50 was 898 nM.

For `CCc1ccc(S(=O)(=O)Nc2ccc(Br)cn2)cc1`, which AC50 is on record?
The AC50 was 1400 nM.

— PubChem BioAssay AID493118 (Broad Institute, 2011)
